Experimental findings from patent US10414797B2, “Gelatinase inhibitors and use thereof” (Iproteos S.L, priority 2015, dated 2019) are described below.

A short description of data set [1]: Parallel artificial membrane permeability assay (PAMPA), Blood-Brain Barrier. Type of data set: in vitro ADME. The following applies: initial concentration 200 μM, pH 7.4, 4 hours; for Papp at 4 h, 200 µM: pig, read-out: Effective permeability Pe. On the procedure:
Parallel Artificial Membrane Permeability Assay (PAMPA)
Parallel artificial membrane permeability assay (PAMPA) described in Kansy et al., J. M. Chem. 1998; 41(7):1007-10 was used here to determine the capacity of compounds to cross the Blood-Brain Barrier (BBB) by passive diffusion (Di L et al., Eur. J. Med. Chem. 2003; 38(3):223-32). The effective permeability (Pe) of the compounds was measured at an initial concentration of 200 μM. The buffer solution was prepared from a commercial concentrated one following the manufacturer's instructions. pH was adjusted to 7.4 using a 0.5 M NaOH solution. A stock solution of new compound was prepared in DMSO and diluted with buffer solution to a final 200 μM concentration (0.5% DMSO content). The PAMPA sandwich was separated and each donor well was filled with […] of the compound solution. The acceptor plate was placed into the donor plate, ensuring that the underside of the membrane was in contact with buffer. 4 μL of the mixture of phospholipids (20 mg/ml) in dodecane was added to the filter of each well, and 200 μL of buffer solution was added to the each acceptor well. The plate was covered and incubated at room temperature in a saturated humidity atmosphere for 4 hours under orbital agitation at 100 rpm. After 4 hours, the contents of the acceptor and donor compartments were analyzed by HPLC: 150 μL of each well from the donor plate and 150 μL of each well from the acceptor plate were transferred to HPLC vials, injecting each sample into a reverse-phase C18 column (150 mm×4.6 mm×5 μm, 100 Å) (100 μL/injection from the acceptor wells, 10 μL/injection from the donor wells and for t0 references). Transport was also confirmed using mass spectrometry (MALDI-TOF).
The phospholipid mixture used was a porcine polar brain lipid extract, provided by Avanti polar lipids, with the following composition: 12.6% phosphatidylcholine (PC), 33.1% phosphatidylethanolamine (PE), 18.5% phosphatidylserine (PS), 4.1% phosphatidylinositol (PI), 0.8% phosphatidic acid and 30.9% of other compounds.
The effective permeability (Pe) after 4 hours was calculated using equation 2 and the percentage of transport (T %) was calculated using equation 3: […]
Ca(t) is the compound concentration in the acceptor well at time t
And Cd(t0) is the compound concentration in the donor well at t0.

A further data set concerns the target MMP-2 (Homo sapiens (Human), UniProt P08253). Nature of the data set: MMP-2 inhibition assay (fluorimetric, DQ gelatin substrate). It counts as biochemical. The following applies: recombinant MMP-2 (CHO cells) 85 ng/mL, DQ gelatin 50 μg/mL, 2 hours at room temperature, pH 7.6. On the procedure:
(§1) All the experiments were done in 1× reaction buffer, which was obtained from a 10× reaction buffer solution. The content of the 10× reaction buffer was: 50 mL of 0.5 M Tris-HCl, 1.5 M NaCl, 50 mM CaCl2 and 2 mM sodium azide at pH 7.6. To obtain the 1× reaction buffer 4 mL of the 10× reaction buffer were diluted in 36 mL of H2O.
Recombinant MMP-2 expressed in Chinese hamster ovary (CHO) cells was obtained from Merck-Millipore (catalog number PF023-5UG). DQ gelatin from pig skin fluorescein conjugated (MMP-2 substrate) was obtained from Life Technologies (catalog number E12055).
Preparation of the MMP-2 for the activity assay: MMP-2 was provided as a stock solution (0.1 mg/mL). The enzyme was diluted in 1× reaction buffer to a final concentration of 5 μg/mL.
Preparation of the DQ gelatin (substrate) solution for the activity assay: the solid form of the substrate was dissolved in water in order to obtain a stock solution of 1 mg/mL.
Procedure: The enzymatic assays were performed in 96-well microtiter plate, which allowed simultaneous monitoring of multiple reactions. For each reaction, 86.3 μL of 1× reaction buffer (pH 7.6), 1.7 μL of MMP-2 (final concentration 85 ng/mL) and 2 μL of the corresponding new compound were added to each well. A stock solution of new compound was prepared in DMSO (100 mM), and dilutions were prepared from this stock solution with DMSO. Finally, to the mixture contained in each well 10 μL of the substrate were added (final concentration 50 μg/mL). The reaction was incubated for 2 hours at room temperature in an orbital shaker (100 rpm).
The inhibitory activity of the new compound was measured fluorimetrically. The excitation and emission wavelengths were 483 and 525 nm, respectively.
Inhibitory activity at several concentration points (ranging from 100 pM to 200 μM MMP) were measured for each compound. The inhibitory activity on MMP-2 and MMP-9 was calculated according to eq 1. For each new compound, the fluorescence in the presence (a) and in the absence (b) of the corresponding MMP was measured. The maximum fluorescence (0% inhibitory activity) was obtained from a sample of the corresponding MMP in the absence of inhibitory compounds. To estimate the inhibitory potency of the novel compounds, activities were plotted against the log concentration of the compound, adjusting to a sigmoid curve using GraphPad Prism software, and the IC50 value, defined as the concentration of compound required to inhibit 50% of the corresponding MMP activity, was determined from resulting curve.
a corresponds to fluorescence intensity in the presence of substrate+test compound+MMP
b corresponds to the fluorescence intensity in the presence of substrate+tested compound
c corresponds to the fluorescence intensity in the presence of substrate+MMP
d corresponds to the fluorescence intensity of the presence of substrate

The target in another data set is MMP-3 (Homo sapiens (Human), UniProt P08254). The data set is described as follows: MMP-3 inhibition assay (fluorogenic peptide substrate). The settings on record: recombinant MMP-3 7.7 nM, Mca-RPKPVE-Nval-WRK(Dnp)-NH2 10 μM, 4 hours at room temperature; tested at 1, 10, 100 and 200 μM. It counts as biochemical. As to the method: as §1
Recombinant MMP-3 expressed in E. Coli was obtained from Merck-Millipore (catalog number 44217). Mca-RPKPVE-Nval-WRK(Dnp)-NH2 (fluorogenic peptide substrate) was obtained from R&D Systems (catalog number ES002).
Preparation of the MMP-3 for the activity assay: MMP-3 was provided as a stock solution (0.1 mg/mL). The enzyme was diluted in water to a final concentration of 0.005 mg/mL.
MMP-3 peptide substrate was provided as a stock solution in DMSO (4.5 mM). For the assay, the substrate was diluted 1× reaction buffer to a concentration of 100 μM.
Procedure: The enzymatic assays were performed in 96-well microtiter plate, which allowed simultaneous monitoring of multiple reactions. For each reaction, 84.6 μL of 1× reaction buffer (pH 7.6), 3.4 μL of MMP-3 (final concentration 7.7 nM) and 2 μL of the corresponding new compound were added to each well. A stock solution of new compound was prepared in DMSO (100 mM), and dilutions were prepared from this stock solution with DMSO. Finally, to the mixture contained in each well 10 μL of the substrate were added (final concentration 10 μM). The reaction was incubated for 4 hours at room temperature in an orbital shaker (90 rpm).
The inhibitory activity of the new compound was measured fluorimetrically. The excitation and emission wavelengths were 320 and 405 nm, respectively.
Inhibitory activity at several concentration points (1, 10, 100 and 200 μM) were measured for each compound. The inhibitory activity on MMP-1, MMP-3 and MMP-7 was calculated according to eq 1 and The IC50 value was calculated as explained above for MMP-2 and MMP-9.

Where a SMILES comes first, the peptide text is derived from it. [ ]: non-standard residue; d: D form. The star is where a group is joined. ξ: configuration not given here. Pro(trans-4-F) = O=C(O)[C@@H]1C[C@@H](F)CN1; NMeIle(3ξ) = CCC(C)[C@H](NC)C(=O)O; Dab = NCC[C@H](N)C(=O)O; Hexanoyl = CCCCCC(=O)*; Bz = O=C(c1ccccc1)*; NHOH = ON*

Chain of MMP-3 (P08254 100-477): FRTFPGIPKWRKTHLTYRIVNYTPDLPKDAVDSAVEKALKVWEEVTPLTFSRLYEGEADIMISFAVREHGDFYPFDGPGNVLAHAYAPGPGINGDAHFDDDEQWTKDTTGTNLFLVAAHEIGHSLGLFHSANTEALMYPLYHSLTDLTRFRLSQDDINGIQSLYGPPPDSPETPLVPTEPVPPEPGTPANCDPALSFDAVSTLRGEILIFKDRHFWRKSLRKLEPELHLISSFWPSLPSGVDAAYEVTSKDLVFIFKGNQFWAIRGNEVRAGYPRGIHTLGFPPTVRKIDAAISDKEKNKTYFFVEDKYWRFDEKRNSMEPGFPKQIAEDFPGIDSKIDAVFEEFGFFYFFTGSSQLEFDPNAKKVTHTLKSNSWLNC
Chain of MMP-2 (P08253 110-660): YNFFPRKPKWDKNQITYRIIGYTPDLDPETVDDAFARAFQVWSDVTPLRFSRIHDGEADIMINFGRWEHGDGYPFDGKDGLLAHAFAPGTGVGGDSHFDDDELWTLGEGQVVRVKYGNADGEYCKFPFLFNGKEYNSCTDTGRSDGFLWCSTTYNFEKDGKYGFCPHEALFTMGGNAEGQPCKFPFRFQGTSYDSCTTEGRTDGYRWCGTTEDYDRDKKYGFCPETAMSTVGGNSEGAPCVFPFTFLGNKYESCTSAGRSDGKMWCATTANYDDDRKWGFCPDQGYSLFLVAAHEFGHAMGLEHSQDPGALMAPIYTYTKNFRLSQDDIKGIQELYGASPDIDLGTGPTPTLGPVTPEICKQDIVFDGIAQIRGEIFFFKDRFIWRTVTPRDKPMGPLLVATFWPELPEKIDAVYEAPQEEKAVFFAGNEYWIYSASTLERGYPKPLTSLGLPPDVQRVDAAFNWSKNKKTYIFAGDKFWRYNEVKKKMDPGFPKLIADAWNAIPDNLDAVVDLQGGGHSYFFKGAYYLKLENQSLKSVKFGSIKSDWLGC

`CCCC(=O)N1CCC[C@H]1C(=O)N(C)[C@H](C(=O)N[C@@H](CCNC(=O)c1cc(F)cc(F)c1)C(=O)NO)C(C)CC` (stereo partly drawn) [Example 4, (2S)-1-butanoyl-N-[(1S)-1-[[(1S)-3-[(3,5-difluorobenzoyl)amino]-1-(hydroxycarbamoyl)propyl]carbamoyl]-2-methyl-butyl]-N-methyl-pyrrolidine-2-carboxamide]: in data set [1], the “percentage of transport % T” value is on record as 3.1% and the Papp at 4 h, 200 µM is 0.74 ×10⁻⁶ cm/s. Moreover, the 50% inhibitory concentration (IC50) on MMP-2 came out at 0.062 µM. On MMP-3, the half-inhibitory concentration (IC50) turned out to be 13.3 µM.

For `CCC(C)[C@@H](C(=O)N[C@@H](CCNC(=O)c1cc(F)cc(F)c1)C(=O)NO)N(C)C(=O)[C@@H]1CCCN1C(C)=O` (stereo partly drawn) [Example 2, (2S)-1-acetyl-N-[(1S)-1-[[(1S)-3-[(3,5-difluorobenzoyl)amino]-1-(hydroxycarbamoyl)propyl]carbamoyl]-2-methyl-butyl]-N-methyl-pyrrolidine-2-carboxamide], in data set [1], the “percentage of transport % T” value is 0.8% and the Papp at 4 h, 200 µM amounted to 0.2 ×10⁻⁶ cm/s. The IC50 at MMP-2 came out at 0.242 µM. For the same compound, the IC50 at MMP-3 was found to be 19.2 µM.

Regarding `CCCCCC(=O)N1CC(F)(F)C[C@H]1C(=O)N(C)[C@H](C(=O)N[C@@H](CCNC(=O)c1cc(F)cc(F)c1)C(=O)NO)C(C)CC` (stereo partly drawn) [Example 7, (2S)—N-[(1S)-1-[[(1S)-3-[(3,5-difluorobenzoyl)amino]-1-(hydroxycarbamoyl)propyl]carbamoyl]-2-methyl-butyl]-4,4-difluoro-1-hexanoyl-N-methyl-pyrrolidine-2-carboxamide], in data set [1], the “percentage of transport % T” value is 19.0% and the Papp at 4 h, 200 µM is 11.3 ×10⁻⁶ cm/s. Also, the 50% inhibitory concentration (IC50) on MMP-2 was found to be 0.159 µM. In addition, the IC50 at MMP-3 worked out at 22.5 µM.

On to `CCCCCC(=O)N1CCC[C@H]1C(=O)N(C)[C@H](C(=O)N[C@@H](CCNC(=O)c1ccccc1)C(=O)NO)C(C)CC` (stereo partly drawn) [Example 15, (2S)—N-[(1S)-1-[[(1S)-3-benzamido-1-(hydroxycarbamoyl)propyl]carbamoyl]-2-methyl-butyl]-N-methyl-1-hexanoyl-pyrrolidine-2-carboxamide] (Hexanoyl-Pro-[NMeIle(3ξ)]-[Dab](Bz)-{NHOH}), for which, in data set [1], the “percentage of transport % T” value is reported as 2.3% and the Papp at 4 h, 200 µM amounted to 1.1 ×10⁻⁶ cm/s. The concentration for half-maximal inhibition (IC50) at MMP-2 worked out at 0.285 µM. Besides, the half-inhibitory concentration (IC50) on MMP-3 was 9.89 µM.

As for `CCCCCCCC(=O)N1CCC[C@H]1C(=O)N(C)[C@H](C(=O)N[C@@H](CCNC(=O)c1cc(F)cc(F)c1)C(=O)NO)C(C)CC` (stereo partly drawn) [Example 6, (2S)—N-[(1S)-1-[[(1S)-3-[(3,5-difluorobenzoyl)amino]-1-(hydroxycarbamoyl)propyl]carbamoyl]-2-methyl-butyl]-N-methyl-1-octanoyl-pyrrolidine-2-carboxamide], in data set [1], the “percentage of transport % T” value came to 14.3% and the Papp at 4 h, 200 µM was found to be 3.5 ×10⁻⁶ cm/s. At MMP-2, the half-maximal inhibitory concentration (IC50) is 0.4 µM. In addition, on MMP-3, the 50% inhibitory concentration (IC50) amounted to 53.4 µM.

With `CCC(C)[C@@H](C(=O)N[C@@H](CCNC(=O)c1ccc(F)cc1)C(=O)NO)N(C)C(=O)[C@@H]1CCCN1C(C)=O` (stereo partly drawn) [Example 1, (2S)-1-acetyl-N-[(1S)-1-[[(1S)-3-[(4-fluorobenzoyl)amino]-1-(hydroxycarbamoyl)propyl]carbamoyl]-2-methyl-butyl]-N-methyl-pyrrolidine-2-carboxamide], in data set [1], the “percentage of transport % T” value turned out to be 0.4% and the Papp at 4 h, 200 µM amounted to 0.094 ×10⁻⁶ cm/s. In addition, the concentration for half-maximal inhibition (IC50) on MMP-2 was found to be 0.202 µM. Moreover, the IC50 on MMP-3 amounted to 30.1 µM.

As for `CCCCCC(=O)N1C[C@H](F)C[C@H]1C(=O)N(C)[C@H](C(=O)N[C@@H](CCNC(=O)c1ccccc1)C(=O)NO)C(C)CC` (stereo partly drawn) [Example 16, (2S,4R)—N-[(1S)-1-[[(1S)-3-benzamido-1-(hydroxycarbamoyl)propyl]carbamoyl]-2-methyl-butyl]-4-fluoro-N-methyl-1-hexanoyl-pyrrolidine-2-carboxamide] (Hexanoyl-[Pro(trans-4-F)]-[NMeIle(3ξ)]-[Dab](Bz)-{NHOH}), in data set [1], the “percentage of transport % T” value is given as 7.3% and the Papp at 4 h, 200 µM is 3.7 ×10⁻⁶ cm/s. On MMP-2, the IC50 was less than 0.001 µM. Further, the “MMP-3 IC50” value at MMP-3 was less than 1 µM.

For `CCC(C)[C@@H](C(=O)N[C@@H](CCNC(=O)c1cc(F)cc(F)c1)C(=O)NO)N(C)C(=O)[C@@H]1CCCN1C(=O)CC(C)C` (stereo partly drawn) [Example 5, (2S)—N-[(1S)-1-[[(1S)-3-[(3,5-difluorobenzoyl)amino]-1-(hydroxycarbamoyl)propyl]carbamoyl]-2-methyl-butyl]-N-methyl-1-(3-methylbutanoyl)pyrrolidine-2-carboxamide], the “percentage of transport % T” value in data set [1] turned out to be 7.6%. The Papp at 4 h, 200 µM in data set [1] was 1.9 ×10⁻⁶ cm/s. Further, the results for the IC50 at MMP-2 and at MMP-3 were 0.116 µM and 25.7 µM, respectively.

As to `CCCC(CCC)C(=O)N1CCC[C@H]1C(=O)N(C)[C@H](C(=O)N[C@@H](CCNC(=O)c1cc(F)cc(F)c1)C(=O)NO)C(C)CC` (stereo partly drawn) [Example 8, (2S)—N-[(1S)-1-[[(1S)-3-[(3,5-difluorobenzoyl)amino]-1-(hydroxycarbamoyl)propyl]carbamoyl]-2-methyl-butyl]-N-methyl-1-(2-propylpentanoyl)pyrrolidine-2-carboxamide], the “percentage of transport % T” value in data set [1] is recorded as 9.0%. In addition, the Papp at 4 h, 200 µM in data set [1] stood at 4.7 ×10⁻⁶ cm/s. Besides, the IC50 on MMP-2 was determined as 0.974 µM; at MMP-3 it was 3.81 µM.
